The record followed here is patent publication US20220144838A1, “Compounds as Inhibitors of Macrophage Migration Inhibitory Factor” (NANJING IMMUNOPHAGE BIOTECH CO., LTD., priority 2019, published 2022).

Where only a bound is given, the exact number is not on record here.

This test deals with T1, MIF (Homo sapiens, UniProt P14174).
T1 sequence (P14174 2-115 limits assumed): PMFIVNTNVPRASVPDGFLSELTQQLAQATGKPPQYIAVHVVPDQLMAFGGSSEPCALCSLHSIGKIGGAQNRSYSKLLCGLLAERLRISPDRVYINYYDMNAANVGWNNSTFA
The test is described as follows: MIF tautomerase assay using pHPP as substrate. The class given is biochemical. The note with it: inhibition of the MIF enzyme in vitro; mean of multiple test results; read-out: Tautomerase Inhibition pIC50 (converted). As to the method:
Tautomerase Assay Using pHPP as Substrate
This assay measured MIF's tautomerase activity in a cell-free system and was based on the determination of initial rates of the MIF-catalyzed conversion of the ketonic into the enolic tautomer of pHPP. This was achieved by spectrophotometric quantification of the complex between borate and the product of the reaction (enolic pHPP). The substrate was prepared by conversion of the enolic pHPP into its ketonic form. To achieve this, 0.5 M pHPP in methanol was diluted 10-fold with 50 mM sodium acetate buffer at pH 6.0, and then the suspension was shaken for 24 h at room temperature in darkness, and finally stored at 4° C. for not more than 1 week, with 5 min sonication being recommended before use.
Assays were performed in small-volume clear-bottom black 96 or 384-well polystyrene plates (Greiner Bio-One). First, 2 μL of the enzyme solution containing 6 nM of MIF in DPBS, 0.025% w/v BSA, and 300 μM CHAPS was dispensed onto sample and negative control wells using Multidrop Combi with metallic tip cassettes (Thermo Fisher Scientific) previously treated with Sigmacote. Then, 2 μL of the same buffer without MIF was dispensed onto positive control wells. The reaction was started by addition of the following to all wells: 2 μL of substrate solution containing 3 mM ketonic pHPP in 200 mM boric acid, 25 mM sodium phosphate, 0.025% w/v BSA, and 300 μM CHAPS at pH 6.0. In order to remove bubbles, the plate was centrifuged in an Allegra 25R centrifuge (Beckman Coulter, Inc., Brea, Calif.) at 1000 rpm for 2 min at room temperature. Then, the plate was read in an EnVision. Final concentrations of enzyme and substrate were 3 nM and 1.5 mM, respectively. Initial rates were calculated for each well as the slope of the absorbance progress curve.
All exemplified compounds (Examples 1-230) were tested in the MIF tautomerase assay or a similar assay described above. The data mentioned below represents a mean pIC50 value of multiple test results. It is understood that the data illustrated below may have reasonable variation depending on the specific conditions and procedures used by the person conducting the testing.
As for `Nc1nc(N2CCN(c3ccc(O)cc3)CC2)nc2c1ncn2-c1cccc(O)c1` [Example 77, 3-(6-amino-2-(4-(4-hydroxyphenyl)piperazin-1-yl)-9H-purin-9-yl)phenol], the IC50 is 1000 to 9770 nM.
The figure for `O=C(O)Cn1cnc2c(-n3ncc4ccccc43)nc(N3CCN(c4ncc(O)cc4F)CC3)nc21` [Example 130, 2-(2-(4-(3-fluoro-5-hydroxypyridin-2-yl)piperazin-1-yl)-6-(1H-indazol-1-yl)-9H-purin-9-yl)acetic acid] is more than 10000 nM; for `CC1(C(=O)O)CCCN1c1nc(N2CCN(c3ccc(O)cc3)CC2)nc2c1ncn2-c1ccncc1` (stereo not drawn) [Example 172, 1-(2-(4-(4-hydroxyphenyl)piperazin-1-yl)-9-(pyridin-4-yl)-9H-purin-6-yl)-2-methylpyrrolidine-2-carboxylic acid] it is 10 to 97.7 nM; for `CCC(C(=O)O)n1cnc2c(-n3ncc4ccccc43)nc(N3CCN(c4ccc(O)cn4)CC3)nc21` (stereo not drawn) [Example 142, 2-(2-(4-(5-hydroxypyridin-2-yl)piperazin-1-yl)-6-(1H-indazol-1-yl)-9H-purin-9-yl)butanoic acid] it is 10 to 97.7 nM.
With `COc1ccc2cnn(-c3nc(N4CCN(c5ccc(O)cc5)CC4)nc4c3ncn4CC(=O)O)c2c1` [Example 50, 2-(2-(4-(4-hydroxyphenyl)piperazin-1-yl)-6-(6-methoxy-1H-indazol-1-yl)-9H-purin-9-yl)acetic acid], the IC50 was 1000 to 9770 nM.
On to `CCC(CO)n1cnc2c(N3CCc4ccccc43)nc(N3CCN(c4ccc(O)cc4)CC3)nc21` (stereo not drawn) [Example 30, 4-(4-(9-(1-hydroxybutan-2-yl)-6-(indolin-1-yl)-9H-purin-2-yl)piperazin-1-yl)phenol], for which the IC50 was 1000 to 9770 nM.
For `O=C(Cn1cnc2c(-n3ncc4ccccc43)nc(N3CCN(c4ccc(O)cc4)CC3)nc21)NS(=O)(=O)Cc1ccccc1` [Example 98, N-(benzylsulfonyl)-2-(2-(4-(4-hydroxyphenyl)piperazin-1-yl)-6-(1H-indazol-1-yl)-9H-purin-9-yl)acetamide], the IC50 is 100 to 977 nM.
Turning to `Oc1ccc(N2CCN(c3cc(-n4ncc5ccccc54)n4ncc(-c5cccnc5)c4n3)CC2)cc1` [Example 14, 4-(4-(7-(1H-indazol-1-yl)-3-(pyridin-3-yl)pyrazolo[1,5-a]pyrimidin-5-yl)piperazin-1-yl)phenol], the IC50 is 1000 to 9770 nM.
With `O=C(O)Cn1cnc2c(-n3ncc4ccccc43)nc(N3CCC(O)(c4ccc(F)cc4)CC3)nc21` [Example 223, 2-(2-(4-(4-fluorophenyl)-4-hydroxypiperidin-1-yl)-6-(1H-indazol-1-yl)-9H-purin-9-yl)acetic acid], the IC50 was 100 to 977 nM.
The result for `CN(C)Cc1cccc2c1cnn2-c1nc(N2CCN(c3ccc(O)cn3)CC2)nc2c1ncn2CC(=O)O` [Example 144, 2-(6-(4-((dimethylamino)methyl)-1H-indazol-1-yl)-2-(4-(5-hydroxypyridin-2-yl)piperazin-1-yl)-9H-purin-9-yl)acetic acid] reads 100 to 977 nM; that for `Cc1nc2ccccc2n1-c1nc(N2CCN(c3ccc(O)cc3)CC2)nc2c1ncn2CC(=O)O` [Example 28, 2-(2-(4-(4-hydroxyphenyl)piperazin-1-yl)-6-(2-methyl-1H-benzo[d]imidazol-1-yl)-9H-purin-9-yl)acetic acid], 1000 to 9770 nM.
With `Nc1nc(N2CCC(c3ccc(O)cc3)CC2)nc2c1ncn2-c1ccncc1` [Example 157, 4-(1-(6-amino-9-(pyridin-4-yl)-9H-purin-2-yl)piperidin-4-yl)phenol], the IC50 was 10 to 97.7 nM.
For the compound `O=C(O)C1CCN(c2nc(N3CCN(c4ccccc4)CC3)nc3c2ncn3-c2ccncc2)C1` (stereo not drawn) [Example 182, 1-(2-(4-phenylpiperazin-1-yl)-9-(pyridin-4-yl)-9H-purin-6-yl)pyrrolidine-3-carboxylic acid], the IC50 was more than 10000 nM.
Take `CN(CC(=O)O)c1nc(N2CCN(c3ccccc3)CC2)nc2c1ncn2-c1ccncc1` [Example 180, N-methyl-N-(2-(4-phenylpiperazin-1-yl)-9-(pyridin-4-yl)-9H-purin-6-yl)glycine]: the IC50 was more than 10000 nM.
For the compound `OCCn1cnc2c(-n3ncc4ccccc43)nc(N3CCC(O)(c4ccc(O)cc4)CC3)nc21` [Example 158, 1-(9-(2-hydroxyethyl)-6-(1H-indazol-1-yl)-9H-purin-2-yl)-4-(4-hydroxyphenyl)piperidin-4-ol], the IC50 was 100 to 977 nM.
For the compound `O=C(O)Cn1cnc2c(-n3nc(CO)c4ccccc43)nc(N3CCN(c4ccc(O)cc4)CC3)nc21` [Example 11, 2-(6-(3-(hydroxymethyl)-1H-indazol-1-yl)-2-(4-(4-hydroxyphenyl)piperazin-1-yl)-9H-purin-9-yl)acetic acid], the IC50 is 10 to 97.7 nM.
`OCCn1cnc2c(N[C@@H](CO)Cc3ccccc3)nc(N3CCN(c4ccc(O)cc4)CC3)nc21` [Example 5, (R)-4-(4-(6-((1-hydroxy-3-phenylpropan-2-yl)amino)-9-(2-hydroxyethyl)-9H-purin-2-yl)piperazin-1-yl)phenol]: the IC50 is more than 10000 nM.
Turning to `O=C(O)Cn1cnc2c(-n3c(CO)nc4ccccc43)nc(N3CCN(c4ccc(O)cc4)CC3)nc21` [Example 29, 2-(6-(2-(hydroxymethyl)-1H-benzo[d]imidazol-1-yl)-2-(4-(4-hydroxyphenyl)piperazin-1-yl)-9H-purin-9-yl)acetic acid], the IC50 was more than 10000 nM.
With `O=C(O)Cn1cnc2c(-c3cccc4[nH]ccc34)nc(N3CCN(c4ccc(O)cc4)CC3)nc21` [Example 118, 2-(2-(4-(4-hydroxyphenyl)piperazin-1-yl)-6-(1H-indol-4-yl)-9H-purin-9-yl)acetic acid], the IC50 is 1000 to 9770 nM.
`O=C1Cc2cccnc2N1c1nc(N2CCN(c3ccc(O)cc3)CC2)nc2c1ncn2CCO` [Example 58, 1-(9-(2-hydroxyethyl)-2-(4-(4-hydroxyphenyl)piperazin-1-yl)-9H-purin-6-yl)-1H-pyrrolo[2,3-b]pyridin-2(3H)-one]: the IC50 was 1000 to 9770 nM.
The result for `Cc1cc(C#N)ccc1-n1cnc2c(N)nc(N3CCN(c4ccc(O)cc4)CC3)nc21` [Example 70, 4-(6-amino-2-(4-(4-hydroxyphenyl)piperazin-1-yl)-9H-purin-9-yl)-3-methylbenzonitrile] reads more than 10000 nM.
In the case of `O=C(O)Cn1cnc2c(-n3ncc4c(O)cccc43)nc(N3CCN(c4ccc(O)cc4)CC3)nc21` [Example 108, 2-(6-(4-hydroxy-1H-indazol-1-yl)-2-(4-(4-hydroxyphenyl)piperazin-1-yl)-9H-purin-9-yl)acetic acid], the IC50 is 10 to 97.7 nM.
With `O=C(O)Cn1cnc2c(-n3nnc4c(CO)cccc43)nc(N3CCN(c4ccc(O)cc4)CC3)nc21` [Example 123, 2-(6-(4-(hydroxymethyl)-1H-benzo[d][1,2,3]triazol-1-yl)-2-(4-(4-hydroxyphenyl)piperazin-1-yl)-9H-purin-9-yl)acetic acid], the IC50 is 10 to 97.7 nM.
The figure for `Nc1nc(N2CC(O)(c3nccs3)C2)nc2c1ncn2-c1ccncc1` [Example 201, 1-(6-amino-9-(pyridin-4-yl)-9H-purin-2-yl)-3-(thiazol-2-yl)azetidin-3-ol] is more than 10000 nM.
`COC(=O)CNc1nc(N2CCN(c3ccc(O)cc3)CC2)nc2c1ncn2-c1ccncc1` [Example 162, Methyl (2-(4-(4-hydroxyphenyl)piperazin-1-yl)-9-(pyridin-4-yl)-9H-purin-6-yl)glycinate]: the IC50 was 100 to 977 nM.
`Nc1nc(N2CCN(c3ccc(O)cc3)CC2)nc2c(-c3ccncc3)c[nH]c12` [Example 226, 4-(4-(4-amino-7-(pyridin-4-yl)-5H-pyrrolo[3,2-d]pyrimidin-2-yl)piperazin-1-yl)phenol]: the IC50 was more than 10000 nM.
As for `Oc1ccc(N2CCN(c3nc(NCc4ccccc4)c4ncn(-c5cccnc5)c4n3)CC2)cc1` [Example 90, 4-(4-(6-(benzylamino)-9-(pyridin-3-yl)-9H-purin-2-yl)piperazin-1-yl)phenol], the IC50 was 1000 to 9770 nM.
For `COc1cccc2c1cnn2-c1nc(N2CCN(c3ccc(O)cc3)CC2)nc2c1ncn2CC(=O)O` [Example 107, 2-(6-(4-methoxy-1H-indazol-1-yl)-2-(4-(4-hydroxyphenyl)piperazin-1-yl)-9H-purin-9-yl)acetic acid], the IC50 was 10 to 97.7 nM.
Consider `Cc1cccc2c1nnn2-c1nc(N2CCN(c3ccc(O)cc3)CC2)nc2c1ncn2CC(=O)O` [Example 20, 2-(2-(4-(4-hydroxyphenyl)piperazin-1-yl)-6-(4-methyl-1H-benzo[d][1,2,3]triazol-1-yl)-9H-purin-9-yl)acetic acid], for which the IC50 was 10 to 97.7 nM.
For the compound `Nc1nc(N2CCC(O)(c3ccc(O)cc3)CC2)nc2c1ncn2-c1cccnc1` [Example 208, 1-(6-amino-9-(pyridin-3-yl)-9H-purin-2-yl)-4-(4-hydroxyphenyl)piperidin-4-ol], the IC50 was 100 to 977 nM.
